Our source for the TGI and GI50 values is PubChem BioAssay (NCI).

Some test systems named below: DLD-1 colon; DMS 273 small cell lung; HOP-18 NSCLC; KM20L2 colon; LXFL 529 NSCLC; M19-MEL melanoma; XF 498 CNS; RXF-631 renal; P388 leukemia; P388/ADR leukemia; SN12K1 renal.
Holding throughout (experiment): NCI tumour cell line growth inhibition, 48 h

Structures are written as SMILES.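 In this assay, cells in 96-well plates receive the compound at five concentrations for 48 hours. Endpoints are linearly interpolated between the surrounding concentrations. GI50 = concentration required for 50% inhibition of growth. TGI marks complete inhibition of growth.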

On to `COc1c(Cl)c(Cl)c(OC)c2c1C(=O)C=CC2=O`, for which the TGI in the assay on DLD-1 colon is 29.5 µM; in the assay on DMS 273 small cell lung, 31.5 µM; in the assay with HOP-18 NSCLC, over 100 µM; in the assay on KM20L2 colon, over 100 µM; with LXFL 529 NSCLC, 29.3 µM; in the assay with M19-MEL melanoma, 32.3 µM. This molecule registered a TGI in the assay with XF 498 CNS of 31 µM.

As for `NC(CNc1ccc(O)cc1)C(=O)O` (stereo not drawn), the TGI was over 100 µM with DLD-1 colon; over 100 µM in the assay on DMS 273 small cell lung; over 100 µM in the assay on HOP-18 NSCLC; over 100 µM with KM20L2 colon; over 100 µM in the assay on LXFL 529 NSCLC; 86.3 µM with M19-MEL melanoma. For the same molecule, the results for the TGI in the assay with RXF-631 renal and in the assay on XF 498 CNS were over 100 µM and 29.1 µM, respectively.

For `CCCN(CCC)c1c([N+](=O)[O-])cc(C(=O)N(C)C)cc1[N+](=O)[O-]`, the TGI with DLD-1 colon, with DMS 273 small cell lung, in the assay with LXFL 529 NSCLC, with M19-MEL melanoma and with XF 498 CNS was over 100 µM each time.

As to `C/C(=C/c1c(C)[nH]c(=O)[nH]c1=O)C(=O)O`, the TGI is over 1380 µM in the assay on DLD-1 colon; over 1380 µM in the assay on DMS 273 small cell lung; over 1380 µM in the assay on HOP-18 NSCLC; over 1370 µM with KM20L2 colon; over 1380 µM in the assay with M19-MEL melanoma; over 1370 µM in the assay with P388 leukemia. Also, the TGI in the assay on P388/ADR leukemia is 1370 µM; in the assay with SN12K1 renal, over 1380 µM; with XF 498 CNS, over 1370 µM. In the assay with P388 leukemia, the GI50 is over 1370 µM.

For the molecule `Cc1oc2c(C)c3oc(=O)cc(C)c3cc2c1CN`, the TGI in the assay on DLD-1 colon was over 100 µM; in the assay on HOP-18 NSCLC, over 100 µM; in the assay on KM20L2 colon, over 100 µM; in the assay with LXFL 529 NSCLC it was over 100 µM; with M19-MEL melanoma it was over 100 µM; with RXF-631 renal, 90.4 µM. For the same molecule, the TGI in the assay with XF 498 CNS came to 73.8 µM.

As to `Cc1ccc(Nc2ccc(Nc3ccc(C)cc3S(=O)(=O)O)c3c2C(=O)c2ccccc2C3=O)c(S(=O)(=O)O)c1`, the TGI in the assay on DLD-1 colon, in the assay on DMS 273 small cell lung, in the assay on HOP-18 NSCLC, with KM20L2 colon, in the assay on LXFL 529 NSCLC and in the assay on RXF-631 renal was over 100 µM each time.
